In brackets after ≈: the same amount, converted by molar mass. Like-named read-outs stand apart in the source and are kept apart here.
Experiments:
[1] = system: endothelial cells (HUVEC); experiment: Cytotoxicity, MTT assay; assay type: cell-based, human; details: 24 h, 37 °C, 800 to 1.6 μg/mL, 50% cell viability
Experimental: (§1) Cytotoxicity assay. Cytotoxicity tests were performed on NIH 3T3 fibroblast cells, endothelial cells (HUVEC), macrophage (RAW264.7), liver cells (LO2), kidney cells (COS7) and enterocyte (NCM-460) using MTT assay. Cells were cultured in DMEM supplemented with 10% FBS, 5% penicillin, 2 mM L-glutamine and incubated at 37 °C in 5% CO 2. Cells were harvested and seeded onto 96-well plates at a density of 1.0 × 10^4 cells per well and incubated for 24 h. On each plate, wells containing growth medium only and cells in growth medium without any antifungal agent were used as the negative and positive control, […]
(§2) concentrations ranging from 800 to 1.6 μg/mL. Medium in each cell-containing well was replaced with 100 μL of the corresponding polymer solution, and the plates were incubated at 37 °C for 24 h. Then, the solution in each well was switched to 100 µL MTT solution (1 mg/mL) and the plate was incubated in the dark at 37 °C for 4 h. […] Then 85 µL of the supernatant from each well was transferred to the corresponding well in a new plate, followed by absorbance measurement at 570 nm on a plate reader. […] The percentage of cell viability in each test well, relative to the positive control (which defines 100%) w as calculated from [% fibroblast growth = (A polymer – Ablank)/(Acontrol – A blank) × 100]. […]

human red blood cells = experiment: Hemolysis assay; details: human RBCs in TBS pH 7.2, 37 °C, 1 h, OD 405 nm, 2000 to 15.6 μg/mL, Triton X-100 as 100%
Experimental: (§3) aforementioned antifungal assay. Gram-positive bacteria ( S. aureus ATCC 6538, S.
The positive controls used in
Then, 100 μL of the RBC working
Molecular Devices Emax precision microplate reader. Measurements were performed in duplicate and repeated on three different days. The percentage of hemolysis at each polymer […]
and plotted against polymer concentration to give the dose-response curves for hemolysis for each polymer. The HC 10 value for each polymer was defined as the polymer concentration to cause 10% lysis of RBCs. All measurements were performed with three replicates.
Cytotoxicity assay. Cytotoxicity tests were performed on NIH 3T3 fibroblast cells, endothelial cells (HUVEC), macrophage (RAW264.7), liver cells (LO2), kidney cells (COS7) and enterocyte (NCM-460) using MTT assay. Cells were cultured in DMEM supplemented with 10% FBS, 5% penicillin, 2 mM L-glutamine and incubated at 37 °C in 5% CO 2. […]
concentrations ranging from 800 to 1.6 μg/mL. […] Then 85 µL of the supernatant from each well was transferred to the corresponding well in a new plate, followed by absorbance measurement at 570 nm on a plate reader. […] The percentage of cell viability in each test well, relative to the positive control (which defines 100%) w as calculated from [% fibroblast growth = (A polymer – Ablank)/(Acontrol

various mammalian cells = experiment: Cytotoxicity, MTT assay, summary over cell types; assay type: cell-based; details: NIH 3T3, HUVEC, RAW264.7, LO2, COS7, NCM‐460, 24 h
Experimental: as §1, §2

A. Baumannii ATCC 747 = experiment: Antibacterial MIC test; assay type: cell-based; details: 1.0 × 10^5 CFU/mL in MH medium
Source text: as §3

E. coli ATCC 25922 = experiment: Antibacterial MIC test; assay type: cell-based; details: 1.0 × 10^5 CFU/mL in MH medium
Source text: as §3

[2] = system: K. pneumoniae ATCC 700603; experiment: Antibacterial MIC test; assay type: cell-based; details: 1.0 × 10^5 CFU/mL in MH medium
Source text: as §3

C. albicans [3] = experiment: MIC assay (in vitro antifungal assay); assay type: cell-based, Candida albicans
Experimental: (§4) In vitro antifungal assays. The MIC assays for C. albicans (K1, SC5314, Gu5, ATCC90028, R01, R02, R03 and R04 strains) and C. neoformans (H99, MYA737 and JEC21 strains) were conducted according to a previously described protocol. The cultured fungal cells were collected at 2.5 × 10^3 CFU/mL in RPMI 1640 medium to give the working suspension. Two- […]
(§5) Then 50 µL of the cell suspension was added to each well. Wells containing cells in RPMI without any polymer or antifungal drug were used as drug-free controls, and wells containing RPMI medium only were used as cell-free controls. The plate was gently stirred for 10 seconds and then incubated at 30 °C. After C. albicans and C. neoformans cells were incubated for 24 h and 48 h, respectively, fungal cell growth was checked visually. […]

C. neoformans [4] = experiment: MIC assay (in vitro antifungal assay); assay type: cell-based; details: Cryptococcus neoformans, 48 h
Experimental: as §4
as §5, with “plate to give 50 µL compound solution in each well. Then” for “Then”

C. albicans [5] = experiment: MFC assay, plating after the MIC test; assay type: cell-based; details: Candida albicans; note: kills > 99.9%
Experimental: as §4
as §5, with “visually. The MIC values were identified as the lowest concentration” for “visually.”
(§6) The MFC assay for Candida and Cryptococcus was conducted after the MIC test.
(§7) An aliquot of 3 µL premixed suspension from each well was plated on the yeast extract-peptone-dextrose (YPD) agar. The plates were incubated at 30 °C for 24 h and 48 h, respectively, for C. albicans cells and C. neoformans cells. Then the plate was inspected visually for colony formation. […]

C. neoformans [6] = experiment: MFC assay, plating after the MIC test; assay type: cell-based; details: Cryptococcus neoformans, 48 h; note: kills > 99.9%
Experimental: as §4
as §5, with “visually. The MIC values were identified as the lowest concentration” for “visually.”
as §6, §7

C. albicans (R02 strain) = experiment: microbe, parasite or virus in culture; assay type: cell-based, Candida albicans; details: for MIC50: Candida albicans
Experimental: Drug resistance studies. Drug resistance was induced by treating the C. albicans (R02 strain) repeatedly with antifungal agents. […]
albicans were tested for 30 passages of growth, which is long enough and adopted by many studies. C. albicans exposed to the 1/2 MIC concentration at the particular passage were re-grown to a logarithmic growth phrase and re-used for the subsequent passage’s MIC measurement for the same antifungal agent. Drug-resistant behavior of C. albicans was evaluated by recording the changes in the MIC compared to the original passage. All measurements were performed in duplicates. […]

B. subtilis BR151 = experiment: Antibacterial MIC test; assay type: cell-based; details: 1.0 × 10^5 CFU/mL in MH medium
Source text: as §3

S. aureus ATCC 6538 = experiment: Antibacterial MIC test; assay type: cell-based; details: 1.0 × 10^5 CFU/mL in MH medium
Source text: as §3

[7] = system: S. epidermidis ATCC 49134; experiment: Antibacterial MIC test; assay type: cell-based; details: 1.0 × 10^5 CFU/mL in MH medium
Source text: as §3

[8] = system: Gram‐positive and Gram‐negative bacteria; experiment: Antibacterial MIC test, summary over six bacteria; assay type: cell-based; details: S. aureus, S. epidermidis, B. subtilis, E. coli, A. baumannii, K. pneumoniae
Source text: as §3

## poly(DL‐diaminopropionic acid) [PDAP10]
[1]
  IC50 HUVEC: 675 µg/mL

## poly(DL‐diaminopropionic acid) [PDAP5]
Human red blood cells
  HC10 (concentration to cause 10% hemolysis): 1000 µg/mL
Various mammalian cells
  IC50 over six mammalian cell types (range): 340 to 800 µg/mL

## polymyxin B
A. Baumannii ATCC 747
  MIC A. baumannii: 0.2 µg/mL
E. coli ATCC 25922
  MIC E. coli: 0.2 µg/mL
[2]
  MIC K. pneumoniae: 0.8 µg/mL

## OC(Cn1cncn1)(Cn1cncn1)c1ccc(F)cc1F [fluconazole]
C. albicans [3]; Candida albicans, 24 h, read-out: MIC50 (used for fluconazole) C. albicans Gu5
  MIC50: 200 µg/mL (≈ 653 µM)
C. albicans [3]; Candida albicans, 24 h, read-out: MIC50 (used for fluconazole) C. albicans K1
  MIC50: 0.4 µg/mL (≈ 1.31 µM)
C. albicans [3]; Candida albicans, 24 h, read-out: MIC50 (used for fluconazole) C. albicans R01
  MIC50: 0.4 µg/mL (≈ 1.31 µM)
C. albicans [3]; Candida albicans, 24 h, read-out: MIC50 (used for fluconazole) C. albicans R02
  MIC50: 0.4 µg/mL (≈ 1.31 µM)
C. albicans [3]; Candida albicans, 24 h, read-out: MIC50 (used for fluconazole) C. albicans R03
  MIC50: 0.2 µg/mL (≈ 0.653 µM)
C. albicans [3]; Candida albicans, 24 h, read-out: MIC50 (used for fluconazole) C. albicans R04
  MIC50: 0.2 µg/mL (≈ 0.653 µM)
C. albicans [3]; Candida albicans, ATCC90028, 24 h, read-out: MIC50 (used for fluconazole) C. albicans ATCC90028
  MIC50: 0.2 µg/mL (≈ 0.653 µM)
C. albicans [3]; Candida albicans, SC5314, 24 h, read-out: MIC50 (used for fluconazole) C. albicans SC5314
  MIC50: 50 µg/mL (≈ 163 µM)
C. albicans [3]; Candida albicans, read-out: MIC of fluconazole (complete inhibition), all strains of C. albicans
  MIC: > 200 µg/mL
C. neoformans [4]; read-out: MIC50 (row marked fluconazole*) C. neoformans H99
  MIC50: 6.3 µg/mL (≈ 20.6 µM)
C. neoformans [4]; read-out: MIC50 (row marked fluconazole*) C. neoformans JEC21
  MIC50: 12.5 µg/mL (≈ 40.8 µM)
C. neoformans [4]; read-out: MIC50 (row marked fluconazole*) C. neoformans MYA737
  MIC50: 6.3 µg/mL (≈ 20.6 µM)
C. albicans [5]; 24 h, read-out: MFC C. albicans Gu5
  MFC: > 200 µg/mL
C. albicans [5]; 24 h, read-out: MFC C. albicans K1
  MFC: > 200 µg/mL
C. albicans [5]; 24 h, read-out: MFC C. albicans R01
  MFC: > 200 µg/mL
C. albicans [5]; 24 h, read-out: MFC C. albicans R02
  MFC: > 200 µg/mL
C. albicans [5]; 24 h, read-out: MFC C. albicans R03
  MFC: > 200 µg/mL
C. albicans [5]; 24 h, read-out: MFC C. albicans R04
  MFC: > 200 µg/mL
C. albicans [5]; ATCC90028, 24 h, read-out: MFC C. albicans ATCC90028
  MFC: > 200 µg/mL
C. albicans [5]; SC5314, 24 h, read-out: MFC C. albicans SC5314
  MFC: > 200 µg/mL
C. neoformans [6]; read-out: MFC C. neoformans H99
  MFC: 6.3 µg/mL (≈ 20.6 µM)
C. neoformans [6]; read-out: MFC C. neoformans JEC21
  MFC: 12.5 µg/mL (≈ 40.8 µM)
C. neoformans [6]; read-out: MFC C. neoformans MYA737
  MFC: 6.3 µg/mL (≈ 20.6 µM)
C. albicans (R02 strain); C. albicans R02, continuous treatment with 0.5 × MIC50
  Increase of MIC50 after 30 passages: eightfolds
C. albicans (R02 strain); read-out: MIC50 after 30 passages
  MIC50: 1.6 µg/mL (≈ 5.22 µM)
C. albicans (R02 strain); read-out: MIC50 before passaging
  MIC50: 0.2 µg/mL (≈ 0.653 µM)

## ε‐poly‐lysine [ε-PL]
C. albicans [3]; K+ up to 20 × 10^−3 M, C. albicans K1
  Effect of increasing K+ on antifungal activity: didn't affect
C. albicans [3]; Na+ 103 mM, K+ 5.4 mM
  MIC C. albicans K1, standard MIC test in RPMI 1640: 400 µg/mL
C. albicans [3]; Na+ 150 mM, K+ 5.4 mM
  MIC C. albicans K1, physiological salt concentration: 1600 μg/mL
C. albicans [3]; Na+ 200 mM, K+ 5.4 mM
  MIC C. albicans K1, Na+ ↑: > 1600 µg/mL
C. albicans [3]; approximate value printed in the design figure
  MIC against C. albicans (Figure 1a): ~ 400 μg/mL
C. albicans [3]; range over three strains, Figure 2d
  MIC against three strains of C. albicans (range): 200 to 400 µg/mL
A. Baumannii ATCC 747
  MIC A. baumannii: 6.3 µg/mL
B. subtilis BR151
  MIC B. subtilis: 1.6 µg/mL
E. coli ATCC 25922
  MIC E. coli: 6.3 µg/mL
[2]
  MIC K. pneumoniae: 6.3 µg/mL
S. aureus ATCC 6538
  MIC S. aureus: 3.1 µg/mL
[7]
  MIC S. epidermidis: 3.1 µg/mL
[8]
  MIC against the six bacteria (summary): 1.6 to 6.3 µg/mL
